Measured values: patent US11504362B2, “Liquid dosage forms to treat cancer” (Exelixis, Inc., priority 2017, dated 2022)
“And” between values parts separate entries of the source, which are not always exact repeats. Equal entries are not always repeated.

Columns and labels:
[1] = Mass balance: excretion and recovery of 14C total radioactivity in urine and feces; assay type: in vivo, human
Text: Methodology: This was an open-label, single-dose, single-center, mass balance, Phase 1 study in healthy male volunteers. There were two study periods: a Screening Period, during which subjects underwent assessments to determine their eligibility for the study, and an On-study Period, which started on Day-1 (‘check-in’ day) when the subject was admitted to the Celerion clinic. […] However, subjects who were discharged from the clinic before Day 28 were required to return to the clinic for all remaining scheduled pharmacokinetic blood sampling and the Day 28 safety assessments. Subjects not meeting radioactivity release criteria by Day 28 could be asked to remain confined in the clinic or continue collection of urine and feces at home (returning samples to the clinic daily) for up to an additional 7 days (through to Day 35). Due to the fact that by Day 35 subjects had still not met release criteria, subjects were given the option of withdrawing from the study or completing the additional 14-day collection period (either in the clinic or as a daily visitor) with urine and feces collections and daily adverse event (AE) inquiries. All urine and fecal collections for all subjects stopped following the conclusion of the Day 49 scheduled events regardless of percentage of total radioactive dose recovered.
A single dose oral solution was administered at Hour 0 on Day 1 by the clinic staff. The dose was given via the scintillation vial. Following dosing, the scintillation vial was rinsed 3 times with room temperature distilled water, and the rinsate was administered to the subject. Residual radioactivity was determined for each dosing vial. The total volume of liquid administered including radiolabelled study drug, rinses, and water given for dosing (in addition to the rinses) was the same for each subject.
Mass balance was calculated as the percent of total administered radioactivity recovered in urine and feces. For the purpose of calculating mass balance, the amount of administered radioactivity was defined as the total radioactivity in the dosing solution minus any radioactivity lost due to emesis (if any occurred), adsorption to the dosing vial, etc.
Subjects were asked to empty their bladders within approximately 60 minutes prior to dosing for the pre-dose sample. Samples were collected during the 0 to 8 hours and 8 to 24 hours post-dose intervals, and then continuing in 24-hour intervals through Day 49. For subjects who met early release criteria, sampling could cease upon discharge from the clinic. […] One subject was released from the clinic following the 864 hour interval (Day 37) collection and no longer provided excreta samples.
Subjects were asked to bring a pre-dose stool sample with them at check-in (produced within 24 hours of check-in). Stools produced between subject check-in and dosing were collected for the pre-dose sample as well, and the sample produced nearest to dosing was used as the pre-dose sample. Post-dose stools were collected in 24-hour intervals through the morning of Day 49. For subjects who met early release criteria, sampling could cease upon discharge from the clinic. […] One subject was released from the clinic following the 864 hour interval (Day 37) collection and no longer provided excreta samples.
For each subject, multiple fecal specimens from each 24-hour interval were combined into a pre-weighed wide mouth polypropylene/polyethylene container and appropriately labeled. For each interval, the fecal sample was weighed to determine the final fecal weight. Each sample was homogenized into a slurry (approximately 20% suspension in water) from which the necessary aliquots were taken.
Mass balance was calculated as the percent of total administered radioactivity recovered in urine and feces. […]

[2] = rodent and non-rodent models; cited from earlier work
[3] = single 175 mg oral dose, through 48 days, mean ± SD (% CV), n = 8

In the case of `COc1cc2nccc(Oc3ccc(NC(=O)C4(C(=O)Nc5ccc(F)cc5)CC4)cc3)c2cc1OC` [XL184, N-(4-{[6,7-bis(methyloxy)quinolin-4-yl]oxy}phenyl)-N′-(4-fluorophenyl)cyclopropane-1,1-dicarboxamide], the “Urine cumulative excretion of 14C total radioactivity” value (“Urine cumulative excretion” for short) ([1]; Day 1 (24 hrs), individual subjects) is reported as 2.32% and 4.30% and 3.22% and 7.81% and 3.81% and 3.89% and 4.78% and 3.38%, the “Urine cumulative excretion” value ([1]; Day 1 (24 hrs), mean) is reported as 4.19% and the “Urine cumulative excretion” value ([1]; Day 2 (48 hrs), individual subjects) is reported as 4.70% and 8.75% and 6.39% and 14.86% and 7.68% and 8.34% and 9.68% and 7.07%. The “Urine cumulative excretion” value ([1]; Day 2 (48 hrs), mean) was 8.43%, the “Urine cumulative excretion” value ([1]; Day 3 (72 hrs), individual subjects) was 7.26% and 13.09% and 9.22% and 20.34% and 11.00% and 12.23% and 13.67% and 9.75% and the “Urine cumulative excretion” value ([1]; Day 3 (72 hrs), mean) was 12.07%. The “Urine cumulative excretion” value ([1]; Day 4 (96 hrs), individual subjects) was 9.65% and 16.19% and 11.53% and 24.39% and 13.47% and 15.11% and 16.57% and 12.11%, the “Urine cumulative excretion” value ([1]; Day 4 (96 hrs), mean) was 14.88% and the “Urine cumulative excretion” value ([1]; Day 5 (120 hrs), individual subjects) was 11.74% and 18.60% and 13.44% and 27.04% and 15.59% and 17.46% and 18.91% and 13.86%. For the same compound, the “Urine cumulative excretion” value ([1]; Day 5 (120 hrs), mean) was 17.08%, the “Urine cumulative excretion” value ([1]; Day 6 ([…]), mean) was 18.72% and the “Urine cumulative excretion” value ([1]; Day 7 ([…]), mean) was 20.04%. The “Urine cumulative excretion” value ([1]; Day 8 (192 hrs), individual subjects) was 16.27% and 23.34% and 16.60% and 31.32% and 19.36% and 21.56% and 23.11% and 18.17%, the “Urine cumulative excretion” value ([1]; Day 8 (192 hrs), mean) was 21.22% and the “Urine cumulative excretion” value ([1]; Day 9 (216 hrs), individual subjects) was 17.35% and 24.24% and 17.22% and 32.02% and 20.33% and 22.44% and 23.99% and 19.02%. The “Urine cumulative excretion” value ([1]; Day 9 (216 hrs), mean) was 22.08%, the “Urine cumulative excretion” value ([1]; Day 10 (240 hrs), individual subjects) was 18.26% and 25.17% and 17.67% and 32.59% and 21.12% and 23.24% and 24.71% and 19.68% and the “Urine cumulative excretion” value ([1]; Day 10 (240 hrs), mean) was 22.81%. For the same compound, the “Urine cumulative excretion” value ([1]; Day 11 ([…]), mean) was 23.42%, the “Cumulative recovery of total radioactivity in feces” value [1, 3] was 53.79% of Dose and the “Cumulative recovery of total radioactivity in urine” value [1, 3] was 27.29% of Dose. The “Cumulative recovery of total radioactivity, total (urine and feces)” value ([1]; single 175 mg oral dose, within 48 days, mean ± SD (% CV), n = 8) was 81.09% of Dose and the Oral bioavailability [2] was “orally bioavailable”.
